{"source": "patent US20170224775A1", "about": "“Lv PEPTIDE, ANTI-Lv ANTIBODY AND METHODS THEREOF” (The Texas A&M University System, priority 2016, published 2017)", "type_in_all_cases": "cell-based, chicken", "key": {"[1]": {"system": "L-VGCC", "experiment": "Whole-cell patch-clamp recordings of L-VGCC currents in cultured embryonic cardiomyocytes", "description": "(§1) Fertilized eggs (Gallus gallus, Single Comb White Leghorns) were obtained from the Poultry Science Department, Texas A&M University (College Station, Tex., USA). All chicken embryos were maintained at 39° C.±0.5° C. Chicken hearts were harvested at embryonic day 12 (E12) and ventricular cardiomyocytes were dissociated and cultured on poly-D-lysine/collagen double-coated dishes (for biochemical and molecular biological assays) or coverslips (for electrophysiological recordings) as described previously. All cultures were maintained at 39° C.±0.5° C. with 5% CO2. Cells were cultured for 2-3 days and subjected to treatments with vehicle, peptide Lv, or pharmaceutical blockers prior to Western blotting or electrophysiological recordings.\nVentricular cardiomyocytes were cultured for two days. Whole-cell patch-clamp recordings of L-VGCC currents were carried out from spontaneously pulsing cardiomyocytes. The external solution was (in mM): 145 TEACl, 9 BaCl2, 0.5 MgCl2, 5.5 glucose, 0.1 NiCl2, and 5 HEPES, pH 7.4 with CsOH or TEAOH. The pipette solution was (in mM): 125 Cs acetate, 20 CsCl, 3MgCl2, 10 EGTA, and 5 HEPES, pH 7.4 adjusted with CsOH. Currents were recorded at room temperature using an A-M Systems model 2400 patch-clamp amplifier (Sequim, Wash., USA). Signals were low-pass filtered at 2 kHz and digitized at 5 kHz with Digidata 1440A interface and pCLAMP 10.0 software (Molecular Devices, Sunnyvale, Calif., USA). Cardiomyocytes were held at −40 mV, and Ba^2+ currents were recorded immediately after whole-cell patches were formed by gentle suctions. Current-voltage (I-V) relationships were elicited from a holding potential at −40 mV using 200 ms steps (5 seconds between steps) over a range from −60 to +60 mV in 10 mV increments. The current densities were calculated by dividing the current amplitudes (pA) by membrane capacitances (pF)."}, "[2]": {"system": "ERK and PKC", "experiment": "Western blot of pERK and pPKCα/β (downstream of VEGFR2) in cultured cardiomyocytes", "conditions": "inhibitor with peptide Lv", "description": "as §1\n(§2) Treated or control cells were washed and lysed in radioimmunoprecipitation assay (RIPA) buffer, and proteins were denatured by mixing with 2× Laemmli sample buffer for 5 minutes at 95° C. Samples were separated on 10% sodium dodecyl sulfate-polyacrylamide gel electrophoresis (SDS-PAGE) gels and transferred to nitrocellulose membranes. The primary antibodies used in this study were pan L-VGCCα1, ERK1/2, di-phosphorylated ERK1/2, actin, phosphorylated PKC α/βII subunit, phosphorylated tyrosine, VEGFR2, and phosphorylated VEGFR2 at tyr1054/1059. […]"}, "[3]": {"system": "VEGFR2", "experiment": "Western blot of VEGFR2 autophosphorylation (pVEGFR2-tyr1054/1059) in cultured embryonic cardiomyocytes", "conditions": "DMH4 in presence of peptide Lv", "description": "as §1, §2"}}, "data": [{"compound": "COc1cccc(-c2cc(=O)c3ccccc3o2)c1N", "note": "[PD98059]", "values": [{"measurement": "peptide Lv augmentation of L-VGCC currents", "setting": "[1]; PD98059 50 μM", "result": "decreased the peptide Lv augmentation of L-VGCC currents"}]}, {"compound": "CN=c1nc(-c2ccccc2)n(-c2ccccc2)s1", "note": "[SCH202676]", "values": [{"measurement": "inhibition of effects of peptide Lv on pERK and pPKCα/β", "setting": "[2]", "result": "did not inhibit the effects of peptide Lv on pERK and pPKCα/β"}]}, {"compound": "COc1ccc2c(c[n+](C)c3c4cc5c(cc4ccc23)OCO5)c1OC", "note": "[chelerythrine]", "values": [{"measurement": "peptide Lv augmentation of L-VGCC currents", "setting": "[1]; chelerythrine 2 μM", "result": "decreased the peptide Lv augmentation of L-VGCC currents"}]}, {"compound": "DMH4", "values": [{"measurement": "block of VEGFa augmentation of L-VGCCs", "setting": "[1]; DMH4 5 μM with VEGFa", "result": "blocked the augmentation of L-VGCCs by VEGFa"}, {"measurement": "L-VGCCs, inhibitor by itself", "setting": "[1]; DMH4 alone, without peptide Lv", "result": "did not affect the LVGCCs"}, {"measurement": "block of peptide Lv augmentation of L-VGCC currents", "setting": "[1]; DMH4 together with peptide Lv", "result": "able to block the augmentation effect of peptide Lv on L-VGCC currents"}, {"measurement": "inhibition of peptide Lv-enhanced VEGFR2 phosphorylation", "setting": "[3]", "result": "sensitive to DMH4 inhibition"}]}]}
